Biological target: T1, CCR1 (Homo sapiens, UniProt P32246)
T1 construct: host or cells: THP-1 cells or monocytes isolated from human buffy coats
T1 sequence (P32246 1-355): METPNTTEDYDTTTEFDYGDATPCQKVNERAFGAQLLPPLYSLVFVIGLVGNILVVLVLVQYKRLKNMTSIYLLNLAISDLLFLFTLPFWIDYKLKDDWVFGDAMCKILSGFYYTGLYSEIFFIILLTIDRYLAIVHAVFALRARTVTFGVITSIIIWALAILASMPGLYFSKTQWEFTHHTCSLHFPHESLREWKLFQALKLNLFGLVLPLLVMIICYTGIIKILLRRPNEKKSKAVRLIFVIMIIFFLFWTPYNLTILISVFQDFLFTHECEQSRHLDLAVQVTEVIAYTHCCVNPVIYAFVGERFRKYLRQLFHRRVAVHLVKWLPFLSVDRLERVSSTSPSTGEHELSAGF
Assay: CCR1 chemotaxis assay or binding assay (activity given for either)
Conditions: either the chemotaxis assay or binding assay; CCR1 expressing cells (THP-1 or human monocytes); read-out: Activity (IC50 class)
Description: Cells were grown under 5% CO2/95% air, 100% humidity at 37° C. and subcultured twice weekly at 1:5 (cells were cultured at a density range of 2×10^5 to 2×10^6 cells/mL) and harvested at 1×10^6 cells/mL. THP-1 cells express CCR1 and can be used in CCR1 binding and functional assays.
Monocytes were isolated from human buffy coats using the Miltenyi bead isolation system (Miltenyi, Auburn, Calif.). Briefly, following a Ficoll gradient separation to isolate peripheral blood mononuclear cells, cells were washed with PBS and the red blood cells lysed using standard procedures. Remaining cells were labeled with anti-CD14 antibodies coupled to magnetic beads (Miltenyi Biotech, Auburn, Calif.). Labeled cells were passed through AutoMACS (Miltenyi, Auburn, Calif.) and positive fraction collected. Monocytes express CCR1 and can be used in CCR1 binding and functional assays.
CCR1 expressing cells were centrifuged and resuspended in assay buffer (20 Mm HEPES pH 7.1, 140 Mm NaCl, 1 Mm CaCl2, 5 Mm MgCl2, and with 0.2% bovine serum albumin) to a concentration of 5×10^6 cells/mL for THP-1 cells and 5×10^5 for monocytes. Binding assays were set up as follows. […] Reactions were aspirated onto GF/B glass filters pre-soaked in 0.3% polyethyleneimine (PEI) solution, on a vacuum cell harvester (Packard Instruments; Meriden, Conn.). Scintillation fluid (40 μl; Microscint 20, Packard Instruments) was added to each well, the plates were sealed and radioactivity measured in a Topcount scintillation counter (Packard Instruments). Control wells containing either diluent only (for total counts) or excess MIP-1α or MIP-1β (1 μg/mL, for non-specific binding) were used to calculate the percent of total inhibition for compound. The computer program Prism from GraphPad, Inc. (San Diego, Calif.) was used to calculate IC50 values.
Chemotaxis assays were performed using 5 ┌ m pore polycarbonate, polyvinylpyrrolidone-coated filters in 96-well chemotaxis chambers (Neuroprobe; Gaithersburg, Md.) using chemotaxis buffer (Hank's balanced salt solution (HBSS) and 1% FBS). CCR1 chemokine ligands (i.e., MIP-1α, CCL15/Leukotactin; R&D Systems; Minneapolis, Minn.) are use to evaluate compound mediated inhibition of CCR1 Mediated migration. Other chemokines (i.e., SDF-1α; R&D Systems; Minneapolis, Minn.) are used as specificity controls. […] The chambers were incubated 1-2 hours at 37° C., and the number of cells in the lower chamber quantified either by direct cell counts in five high powered fields per well or by the CyQuant assay (Molecular Probes), a fluorescent dye method that measures nucleic acid content and microscopic observation.
THP-1 cells and monocytes lack other chemokine receptors that bind the same set of chemokine ligands as CCR1 (i.e., MIP-1α, MPIF-1, Leukotactin, etc.). Equal numbers of cells were added to each well in the plate. The cells were then incubated with radiolabeled MIP-1α. Unbound ligand was removed by washing the cells, and bound ligand was determined by quantifying radioactive counts. […] Percent inhibition was determined by the equation: […]
In the assay, the amount of compound was varied; while cell number and ligand concentration were held constant.
One of the primary functions of chemokines is their ability to mediate the migration of chemokine receptor-expressing cells, such as white blood cells. […] THP-1 Myelomonocytic leukemia cells, which resemble monocytes, as wells as freshly isolated monocytes, were used as targets for chemoattraction by CCR1 chemokine ligands (i.e., MIP-1α, CCL15/leukotactin). […] In this assay, the amount of compound was varied; while cell number and chemokine agonist concentrations were held constant. After the chemotaxis chambers were incubated 1-2 hours at 37° C., the responding cells in the lower chamber were quantified by labeling with the CyQuant assay (Molecular Probes), a fluorescent dye method that measures nucleic acid content, and by measuring with a Spectrafluor Plus (Tecan).

SMILES | IC50
COc1cc(N2CCN(C(=O)Cn3nc(C)c4cccnc43)[C@@H](C)C2)c(F)cc1Cl [Compound 1.005] | < 1 µM
COc1cc(N2CCN(C(=O)Cn3cc4cccnc4n3)CC2)ccc1Cl [Compound 1.006] | < 1 µM
COc1cc(N2CCN(C(=O)Cn3ncc4ccc[n+]([O-])c43)CC2)ccc1Cl [Compound 1.030] | < 1 µM
COc1cc(N2CCN(C(=O)Cn3cc4cccnc4n3)CC2)c(F)cc1Cl [Compound 1.013] | < 1 µM
COc1cc(N2CCN(C(=O)Cn3nc(N4CCOCC4)c4cccnc43)CC2)ccc1Cl [Compound 1.033] | < 1 µM
COc1cc(N2CCN(C(=O)Cn3ncc4ccncc43)[C@@H](C)C2)c(F)cc1Cl [Compound 1.034] | < 1 µM
COc1cc(N2CCN(C(=O)Cn3cc4ccc(C)nc4n3)CC2)ccc1Cl [Compound 1.032] | < 1 µM
COc1cc(N2CCN(C(=O)Cn3nc(-c4nccs4)c4cccnc43)CC2)ccc1Cl [Compound 1.025] | < 1 µM
COc1cc(N2CCN(C(=O)Cn3nc(N)c4cccnc43)[C@@H](C)C2)c(F)cc1Cl [Compound 1.003] | < 1 µM
COc1cc(N2CCN(C(=O)Cn3nc(-c4ccccn4)c4cccnc43)[C@@H](C)C2)c(F)cc1Cl [Compound 1.022] | < 1 µM
COc1cc(N2CCN(C(=O)Cn3nc(F)c4cccnc43)CC2)ccc1Cl [Compound 1.016] | < 1 µM
COc1cc(N2CCN(C(=O)Cn3nc(-c4ncco4)c4cccnc43)[C@@H](C)C2)c(F)cc1Cl [Compound 1.017] | < 1 µM

More lines, now with the values ahead:

IC50 | SMILES
< 1 µM | COc1cc(N2CCN(C(=O)Cn3nc(-c4ncon4)c4cccnc43)[C@@H](C)C2)c(F)cc1Cl [Compound 1.056]
< 1 µM | COc1cc(N2CCN(C(=O)Cn3nc4ncccc4c3-c3ncco3)CC2)ccc1Cl [Compound 1.052]
< 1 µM | COc1cc(N2CCN(C(=O)Cn3nc(I)c4cccnc43)CC2)ccc1Cl [Compound 1.063]
< 1 µM | COc1cc(N2CCN(C(=O)Cn3ncc4ccc(N=[N+]=[N-])nc43)CC2)ccc1Cl [Compound 1.048]
< 1 µM | Cc1cc(N2CCN(C(=O)Cn3nc(-c4ncc[nH]4)c4cccnc43)CC2)ccc1Cl [Compound 1.077]
< 1 µM | COc1cc(N2CCN(C(=O)Cn3nc(-c4nccn4C)c4cccnc43)CC2)ccc1Cl [Compound 1.081]
< 1 µM | COc1cc(N2CCN(C(=O)Cn3nc(C(=N)NO)c4cccnc43)CC2)ccc1Cl [Compound 1.057]
< 1 µM | COc1cc(N2CCN(C(=O)Cn3ncc4ccc(Cl)nc43)CC2)ccc1Cl [Compound 1.047]
< 1 µM | COc1cc(N2CCN(C(=O)Cn3cc4c(I)ccnc4n3)CC2)ccc1Cl [Compound 1.037]
< 1 µM | COc1cc(N2CCN(C(=O)Cn3ncc4c(OC)ncnc43)CC2)ccc1Cl [Compound 1.045]
< 1 µM | COc1cc(N2CCN(C(=O)Cn3ncc4c(Cl)ncnc43)CC2)ccc1Cl [Compound 1.044]
